Common to all, as to experiment: greenhouse pre-emergence herbicidal test
Holding throughout (format): in vivo
Details in all cases: 250 g/ha, scale 0 to 100

Assay [1] relates to Alopercurus myosuroides. An excerpt: (§1) The culture containers used were plastic flowerpots containing loamy sand with approximately 3.0% of humus as the substrate. The seeds of the test plants were sown separately for each species.
(§2) For the pre-emergence treatment, the active ingredients, which had been suspended or emulsified in water, were applied directly after sowing by means of finely distributing nozzles. The containers were irrigated gently to promote germination and growth and subsequently covered with transparent plastic hoods until the plants had rooted. This cover caused uniform germination of the test plants, unless this had been impaired by the active ingredients.
(§3) Depending on the species, the plants were kept at 10-25° C. or 20-35° C., respectively.
(§4) The test period extended over 2 to 4 weeks. During this time, the plants were tended, and their response to the individual treatments was evaluated.
(§5) Evaluation was carried out using a scale from 0 to 100. 100 means no emergence of the plants, or complete destruction of at least the aerial moieties, and 0 means no damage, or normal course of growth. A moderate herbicidal activity is given at values of at least 60, a good herbicidal activity is given at values of at least 70, and a very good herbicidal activity is given at values of at least 85.

The subject of assay [2] is Echinocloa crus-galli.
Text: as §1, §2, §3, §4, §5

Assay [3] deals with Setaria faberi. The source says:
The culture containers used were plastic flowerpots containing loamy sand with approximately 3.0% of humus as the substrate. The seeds of the test plants were sown separately for each species. For the pre-emergence treatment, the active ingredients, which had been suspended or emulsified in water, were applied directly after sowing by means of finely distributing nozzles. The containers were irrigated gently to promote germination and growth and subsequently covered with transparent plastic hoods until the plants had rooted. This cover caused uniform germination of the test plants, unless this had been impaired by the active ingredients. […] The test period extended over 2 to 4 weeks. During this time, the plants were tended, and their response to the individual treatments was evaluated. Evaluation was carried out using a scale from 0 to 100. 100 means no emergence of the plants, or complete destruction of at least the aerial moieties, and 0 means no damage, or normal course of growth.

The test system of assay [4] is Amaranthus retroflexus.
Text: as §1, §2, §3, §4, §5

Turning to `COC(C)(C)c1nc(N)nc(Nc2c(F)c(F)cc(F)c2OCc2cccc(C)c2)n1` [Example 227], the values for the herbicidal activity in assay [1], in assay [2] and in assay [3] were 90%, 75% and 85%, respectively.
Turning to `CC(C)(F)c1nc(N)nc(Nc2c(F)cccc2OCc2ccc(Cl)s2)n1` [Example 120], the herbicidal activity is given as 75% in assay [1], 100% in assay [2] and 90% in assay [3].
For `CC(C)(F)c1nc(N)nc(Nc2c(F)cccc2OCc2c(F)cccc2Cl)n1` [Example 177], the herbicidal activity is 85% in assay [1], 100% in assay [2] and 95% in assay [3].
Turning to `CC1(c2nc(N)nc(Nc3c(F)c(F)cc(F)c3OCc3ccccc3)n2)CCC1` [Example 201], the herbicidal activity in assay [1], in assay [2] and in assay [3] was 100% in each case.
Consider `COCc1ccc(COc2c(F)cc(F)c(F)c2Nc2nc(N)nc(C(C)(C)F)n2)cc1` [Example 220], for which the herbicidal activity in assay [1] was found to be 98%; in assay [2] it was 95%; in assay [3], 90%.
`CC(C)=C(F)c1nc(N)nc(Nc2c(F)ccc(F)c2OCc2ccccc2)n1` [Example 160]: the results for the herbicidal activity in assay [1] and in assay [3] were 85% and 75%, respectively.
For the molecule `Cc1cccc(COc2c(F)cc(F)c(F)c2Nc2nc(N)nc(C(C)(C)F)n2)c1` [Example 182], the herbicidal activity in assay [1], in assay [2] and in assay [3] was 100% throughout.
`CC(C)(F)c1nc(N)nc(Nc2c(F)ccc(F)c2OCc2ccsc2)n1` [Example 174]: the herbicidal activity in assay [1], in assay [2] and in assay [3] was 100% throughout.
As to `CC(C)(C)c1nc(N)nc(Nc2c(F)cccc2OCc2ccccc2)n1` [Example 33], the values for the herbicidal activity in assay [1] and in assay [2] were 75% and 60%, respectively.
`Cc1ccccc1COc1c(F)cc(F)c(F)c1Nc1nc(N)nc(C(C)(C)F)n1` [Example 181]: the results for the herbicidal activity in assay [1], in assay [2] and in assay [3] were 98%, 100% and 100%, respectively.
As for `CC(F)c1nc(N)nc(Nc2c(F)ccc(F)c2OCc2ccccc2)n1` (stereo not shown) [Example 196], the herbicidal activity in assay [1] worked out at 98%; in assay [2], 100%; in assay [3], 100%.
For the molecule `CC(C)(F)c1nc(N)nc(Nc2c(F)cccc2OCc2c(Cl)cccc2Cl)n1` [Example 78], the herbicidal activity in assay [1] came out at 100%; in assay [2] it was 100%; in assay [3], 75%.
Take `CC(C)C(F)c1nc(N)nc(Nc2c(F)cccc2OCc2ccccc2)n1` (stereo not shown) [Example 65]: the herbicidal activity in assay [1] and in assay [2] was 95% throughout.
`CC(C)(F)c1nc(N)nc(Nc2c(F)c(F)cc(F)c2OCc2ccccc2F)n1` [Example 203]: the herbicidal activity in assay [1], in assay [2] and in assay [3] was 100% in each case.
As to `COc1ccc(COc2c(F)cc(F)c(F)c2Nc2nc(N)nc(C(C)(C)F)n2)cc1` [Example 180], the herbicidal activity in assay [1] came out at 90%; in assay [2] it was 100%; in assay [3], 100%.
With `COc1ccc(COc2ccc(F)c(F)c2Nc2nc(N)nc(C(C)(C)F)n2)cc1` [Example 186], the herbicidal activity worked out at 85% in assay [1] and 98% in assay [2].
`CCOc1cccc(COc2cccc(F)c2Nc2nc(N)nc(C(C)(C)F)n2)c1` [Example 149]: the herbicidal activity in assay [1] turned out to be 85%; in assay [2] it was 75%; in assay [3] it was 90%.
As for `Nc1nc(Nc2c(F)ccc(F)c2OCc2ccccc2)nc(C(F)C2CC2)n1` (stereo not shown) [Example 189], the herbicidal activity in assay [1] turned out to be 98%; in assay [2], 100%; in assay [3], 100%.
As to `CC(C)(F)c1nc(N)nc(Nc2c(F)cccc2OC(F)(F)c2ccccc2)n1` [Example 83], the herbicidal activity in assay [1], in assay [2] and in assay [3] was 100% throughout.
`CC(C)(F)c1nc(N)nc(Nc2c(F)cccc2OCc2ccc(F)c(F)c2)n1` [Example 45]: the herbicidal activity is reported as 80% in assay [1], 80% in assay [2] and 70% in assay [3].
In the case of `CC(C)(F)c1nc(N)nc(Nc2c(F)c(F)cc(F)c2OCc2ccccc2C2CC2)n1` [Example 218], the herbicidal activity in assay [1] is 95%; in assay [2], 85%; in assay [3] it was 100%.
For `CC(C)(F)c1nc(N)nc(Nc2c(F)c(Br)cc(F)c2OCc2ccccc2)n1` [Example 163], in that order: 100%, 100% and 100%.
Regarding `CCOc1ccc(COc2c(F)ccc(F)c2Nc2nc(N)nc(C(C)(C)F)n2)cc1` [Example 193], the herbicidal activity in assay [1] was found to be 80%; in assay [2], 95%; in assay [3], 100%.
The corresponding values for `Nc1nc(Nc2c(F)ccc(F)c2OCc2ccccc2)nc(C2(F)CC2)n1` [Example 187] are 85%, 100% and 100%.
As to `COc1cc(F)cc(COc2cccc(F)c2Nc2nc(N)nc(C(C)(C)F)n2)c1` [Example 54], the herbicidal activity came out at 90% in assay [1] and 100% in assay [2].
On to `CC(C)(F)c1nc(N)nc(Nc2c(OC(F)(F)c3cccc(F)c3)cc(F)c(F)c2F)n1` [Example 129], for which the herbicidal activity in assay [4], in assay [2] and in assay [3] was 100% throughout.
Consider `COc1ccccc1COc1c(F)cc(F)c(F)c1Nc1nc(N)nc(C(C)F)n1` (stereo not shown) [Example 210], for which the herbicidal activity in assay [4], in assay [2] and in assay [3] was 100% in each case.
For the molecule `COc1cccc(COc2ccc(F)c(F)c2Nc2nc(N)nc(C(C)(C)F)n2)c1` [Example 185], the herbicidal activity in assay [1] is given as 98%; in assay [2], 100%; in assay [3], 100%.
As to `Cc1cccc(C)c1COc1c(F)cc(F)c(F)c1Nc1nc(N)nc(C(C)F)n1` (stereo not shown) [Example 255], the herbicidal activity in assay [1] was 90%; in assay [2], 95%; in assay [3] it was 90%.
As to `CCC(C)(F)c1nc(N)nc(Nc2c(F)c(F)cc(F)c2OCc2ccccc2)n1` (stereo not shown) [Example 247], the herbicidal activity in assay [4], in assay [2] and in assay [3] was 100% each time.
Turning to `CC(C)(F)c1nc(N)nc(Nc2c(F)c(F)cc(F)c2OCc2ccc(F)cc2)n1` [Example 205], the herbicidal activity in assay [1], in assay [2] and in assay [3] was 100% in each case.
For the molecule `COc1cccc(COc2c(F)cc(F)c(F)c2Nc2nc(N)nc(C(C)(C)OC)n2)c1` [Example 215], the herbicidal activity in assay [4] is reported as 100%; in assay [2], 98%; in assay [3] it was 98%.

For the origin of these results see patent US11992012B2, “Diaminotriazine compounds” (BASF SE, priority 2018, dated 2024).
